From ChEMBL document CHEMBL5247600, “Rational design of metabolically stable HDAC inhibitors: An overhaul of trifluoromethyl ketones” (Eur J Med Chem, 2022) come the findings set out here.

The experiment relates to HCT-116. Nature of the experiment: Anticancer activity against human HCT-116 cells assessed as cell growth inhibition incubated for 3 days by methylene blue staining based colorimetric assay. It is filed as functional. The note with it: HCT-116, 72 h.

A word on the IC50: it is the concentration needed to halve the response being measured.

The structures appear in SMILES notation. Some results are limits rather than exact numbers.

Turning to `C/C(=N\O)C(=O)NCCCCCC(=O)Nc1ccccc1`, the half-inhibitory concentration (IC50) was greater than 100 µM.
Regarding `C/C(=N\O)C(=O)NCCCCC(=O)Nc1ccccc1`, the half-maximal inhibitory concentration (IC50) is greater than 100 µM.
Regarding `COc1ccccc1NC(=O)CCCCCCNC(=O)C(O)(O)C(F)(F)F`, the IC50 was found to be 10.1 µM.
For the molecule `NC(=O)C(=O)NCCCCCC(=O)Nc1ccccc1`, the IC50 is greater than 100 µM.
As for `O=C(CCCCCCNC(=O)C(O)(O)C(F)(F)F)Nc1nc2ccccc2o1`, the figure is 3.45 µM; as for `O=C(CCCCCCCNC(=O)C(O)(O)C(F)(F)F)Nc1ccccc1`, 41.7 µM; as for `O=C(CCCCCCNC(=O)C(O)(O)C(F)(F)F)Nc1ccccc1`, 9.14 µM.
Take `O=C(CCCCCCNC(=O)C(O)(O)C(F)(F)F)Nc1ccc(S(F)(F)(F)(F)F)cc1`: the 50% inhibitory concentration (IC50) amounted to 9.11 µM.
As for `O=C(CCCCCCNC(=O)C(O)(O)C(F)(F)F)Nc1cccc2ccccc12`, the figure is 6.48 µM; as for `CC(=O)C(=O)NCCCCC(=O)Nc1ccccc1`, greater than 100 µM; as for `Cc1ccc(S(=O)(=O)Nc2ccc(NC(=O)CCCCCCNC(=O)C(O)(O)C(F)(F)F)cc2)cc1`, 17.2 µM.
With `CC(=O)C(=O)NCCCCCC(=O)Nc1ccccc1`, the IC50 is greater than 100 µM.
Regarding `CC(=O)c1ccc(NC(=O)CCCCCCNC(=O)C(O)(O)C(F)(F)F)cc1`, the 50% inhibitory concentration (IC50) was found to be 12.1 µM.
As for `O=C(CCCCCNC(=O)c1cc(=O)c(O)co1)Nc1ccccc1`, the figure is greater than 100 µM; as for `COc1cccc(NC(=O)CCCCCCNC(=O)C(O)(O)C(F)(F)F)c1`, 6.11 µM.
`O=C(CCCCCCNC(=O)C(O)(O)C(F)(F)F)Nc1nc(-c2ccccc2)c(-c2ccccc2)s1`: the 50% inhibitory concentration (IC50) was 29.9 µM.
`Cc1nc(NC(=O)CCCCCCNC(=O)C(O)(O)C(F)(F)F)sc1-c1ccccc1`: the 50% inhibitory concentration (IC50) came to 10.1 µM.
Turning to `NC(=O)C(=O)NCCCCC(=O)Nc1ccccc1`, the IC50 is greater than 100 µM.
Take `O=C(CCCCCNC(=O)c1ccc[nH]1)Nc1ccccc1`: the IC50 was greater than 100 µM.
With `OC(O)(c1c(F)c(F)c(-n2cc(-c3ccccc3)nn2)c(F)c1F)C(F)(F)F`, the IC50 is greater than 100 µM.
As for `CC(=O)C(=O)NCCCCCCC(=O)Nc1ccccc1`, the figure is greater than 100 µM; as for `O=C(CCCCCCNC(=O)C(O)(O)C(F)(F)F)Nc1ccc(C(=O)c2ccccc2)cc1`, greater than 40 µM; as for `O=C(CCCCNC(=O)c1cc(=O)c(O)co1)Nc1ccccc1`, greater than 100 µM.
Regarding `O=C(CCCCCCNC(=O)C(O)(O)C(F)(F)F)Nc1nc2ccc(Cl)cc2s1`, the IC50 amounted to 11 µM.
For `O=C(CCCCCCCNC(=O)c1cc(=O)c(O)co1)Nc1ccccc1`, the half-inhibitory concentration (IC50) was greater than 100 µM.
Consider `O=C(CCCCCCNC(=O)C(O)(O)C(F)(F)F)Nc1ccncc1`, for which the IC50 amounted to 6.67 µM.
As for `O=C(CCCCCCNC(=O)C(O)(O)C(F)(F)F)Nc1c(F)cc(F)cc1F`, the figure is 22.2 µM; as for `COc1ccc2nc(NC(=O)CCCCCCNC(=O)C(O)(O)C(F)(F)F)sc2c1`, 7.56 µM.
As for `O=C(CCCCCCNC(=O)C(O)(O)C(F)(F)F)Nc1nc2ccc(Br)cc2s1`, the figure is 10.3 µM.
Take `C/C(=N\O)C(=O)NCCCCCCC(=O)Nc1ccccc1`: the IC50 was greater than 100 µM.
`O=C(CCCCCCNC(=O)C(O)(O)C(F)(F)F)Nc1ccc(F)cc1F`: the IC50 was found to be 18.5 µM.
Regarding `OC(c1c(F)c(F)c(-n2cc(-c3ccccc3)nn2)c(F)c1F)C(F)(F)F` (centres undefined), the IC50 is greater than 100 µM.
As for `CCOc1ccc(-c2cnc(NC(=O)CCCCCCNC(=O)C(O)(O)C(F)(F)F)s2)cc1`, the figure is 4.05 µM; as for `O=C(CCCCCCNC(=O)C(O)(O)C(F)(F)F)Nc1nc2ccc(Br)cc2o1`, 12.1 µM.
For the molecule `O=C(CCCNC(=O)C(O)(O)C(F)(F)F)Nc1ccccc1`, the IC50 was 34.8 µM.
As for `O=C(CCCCCCNC(=O)C(O)(O)C(F)(F)F)Nc1ccc(F)cc1`, the figure is 7.57 µM.
For `O=C(CCCCNC(=O)C(O)(O)C(F)(F)F)Nc1ccccc1`, the IC50 turned out to be 20.3 µM.
As for `O=C(CCCCCCNC(=O)C(O)(O)C(F)(F)F)Nc1cccc(Br)c1`, the figure is 3.06 µM; as for `O=C(CCCCCCC(O)C(F)(F)F)Nc1ccccc1` (centres undefined), greater than 40 µM.
